In patent US20230099441A1, “HETEROCYCLIC COMPOUND, APPLICATION THEREOF, AND COMPOSITION CONTAINING SAME” (GenEros Biopharma Ltd., priority 2019, published 2023):

System: STAT5 Y694 phosphorylation
Assay: Protein electrophoresis and blotting of STAT5 Y694 phosphorylation in Jurkat cells stimulated with human interferon beta
Assay type: cell-based
Conditions: for Inhibiting Ratio (0% for vehicle control): 1 hour pretreatment, 20 ng/ml human interferon beta 30 minutes, pSTAT5/GAPDH; for Example of Effect 1: Inhibiting Ability (Protein Electrophoresis and Blotting): observed pSTAT5 bands at 10 μM and 100 μM
Experimental: Example of Effect 1: Protein Electrophoresis and Blotting Experiment
Standard protein electrophoresis and chemiluminescence imaging equipment (Bio-Rad);
Protein lysate RIPA (Lianke Biological; Cat #WB020); Western blot transfer membrane PVDF (Millipore; Cat #IPVH00010);
Jurkat cells (ATCC American Standard Culture Center, TIB152) were cultured in a 6-well plate at a density of 1×10^6/ml with RPMI medium […] 10% fetal bovine serum in a humidified incubator at 37° C. and maintained at 5% carbon dioxide overnight. On the second day, the cells were pretreated with compounds of different concentrations (the mother liquor of the compound prepared by dimethyl sulfoxide was diluted in the medium at the required concentration) for 1 hour, and then stimulated with 20 ng/ml human interferon beta for 30 minutes, it was mixed thoroughly and then placed in an incubator at 37° C. environment. […] Then an appropriate volume of RIPA Lysis Solution was added, it was mixed well, and placed on ice for 1 hour, inverted and mixed several times in the middle. Then, the cell lysate was centrifuged at 12000 rpm at 4° C. for 10 minutes, and the supernatant was transferred to another test tube, aliquoted and stored at −20° C. until use.
An equal volume of protein lysate was mixed with an appropriate 6-fold protein loading buffer (Biyun Tian Biochemical Company P0015F), and the mixture was heated at 95 degrees for 10 minutes, after full denaturation, the protein sample was added to the polyacrylamide gel (self-made, raw material purchased from Soleibao Biotechnology Company A1010, 30% acrylamide solution), and electrophoresis was performed at the appropriate voltage for 1 hour, until the strips were fully separated. It was transferred to a polyvinylidene fluoride membrane according to standard procedures, and blocked with 5% skim milk for 1 hour, and the specified antibody was added, and it was diluted 1:1000 in 3% bovine serum albumin, and it was incubated overnight for four degrees. It was thoroughly rinsed, incubated with the secondary antibody, exposed to chemiluminescence and signals were collected. ImageJ software was used to quantify the obtained chemiluminescence results. The same area was selected, the gray values of STAT5 phosphorylation band and GAPDH band of each sample were analyzed, and the ratio of pSTAT5/GAPDH level was calculated. The value of the solvent-treated sample was 100%, and the remaining samples were converted into relative data in the same proportion, that is, the percentage corresponding to the solvent sample. […] The solvent control group was the same as the test compound group except that DMSO was used instead of the DMSO solution of the test compound. N1 (Pimozide) was a specific positive control.

Row | SMILES | Inhibiting Ratio (0% for vehicle control) (1 μM) | Inhibiting Ratio (0% for vehicle control) (10 μM) | Inhibiting Ratio (0% for vehicle control) (100 μM) | Example of Effect 1: Inhibiting Ability (Protein Electrophoresis and Blotting)
1 | N#Cc1ccc2[nH]c(=O)n(C3CCN(C(=O)Cc4ccc(C(F)(F)F)cc4)CC3)c2c1 [GEN1-010, 2-oxo-3-(1-(2-(4-(trifluoromethyl)phenyl)acetyl)piperidin-4-yl)-2,3-dihydro-1H-benzo[d]imidazole-5-carbonitrile] | −29.0% | 17.5% | 94.8% | +
2 | O=C(Cc1ccc(C(F)(F)F)cc1)N1CC(n2c(=O)[nH]c3ccccc32)C1 [GEN1-023, 1-(1-(2-(4-(trifluoromethyl)phenyl)acetyl)azetidin-3-yl)-1H-benzo[d]imidazole-2(3H)-one] | 9.4% | 33.3% | 93.6% | +
3 | O=C(Cc1ccc(C(F)(F)F)cc1)N1CCC(n2c(=O)c(=O)[nH]c3ccccc32)CC1 [GEN1-127, 1-(1-(2-(4-(trifluoromethyl)phenyl)acetyl)piperidin-4-yl)-1,4-dihydroquinoxaline-2,3-dione] |  |  |  | +
4 | O=C(Cc1ccncc1)N1CCC(n2c(=O)[nH]c3ccccc32)CC1 [Example X3, 1-(1-(2-(pyridin-4-yl)acetyl)piperidin-4-yl)-1H-benzo[d]imidazole-2(3H)-one] | 17.4% | 4.7% | 87.5% | −
5 | O=C(Cc1ccc(C(F)(F)F)o1)N1CCC(n2c(=O)[nH]c3ccccc32)CC1 [GEN1-078, 1-(1-(2-(5-(trifluoromethyl)furan-2-yl)acetyl)piperidin-4-yl)-1H-benzo[d]imidazol-2(3H)-one] |  |  |  | +
6 | O=C(Cc1cccc(C(F)(F)F)c1)N1CCC(n2c(=O)[nH]c3ccccc32)CC1 [GEN1-029, 1-(1-(2-(3-(trifluoromethyl)phenyl)acetyl)piperidin-4-yl)-1H-benzo[d]imidazole-2(3H)-one] | −74.1% | −67.7% | 92.3% | +
7 | O=C(Cc1ccc(-c2ccccc2)cc1)N1CCC(n2c(=O)[nH]c3ccccc32)CC1 [GEN1-033, 1-(1-(2-([1,1′-biphenyl]-4-yl)acetyl)piperidin-4-yl)-1H-benzo[d]imidazole-2(3H)-one] | 12.8% | 7.6% | 98.0% | +
8 | O=C(O)c1ccc(CC(=O)N2CCC(n3c(=O)[nH]c4ccccc43)CC2)cc1 [Example X6, 4-(2-oxo-2-(4-(2-oxo-2,3-dihydro-1H-benzo[d]imidazol-1-yl)piperidine-1-yl)ethyl)benzoic acid] |  |  |  | −
9 | O=C(CC12CC3CC(CC(C3)C1)C2)N1CCC(n2c(=O)[nH]c3ccccc32)CC1 [GEN1-098, 1-(1-(2-(adamantan-1-yl)acetyl)piperidin-4-yl)-1H-benzo[d]imidazol-2(3H)-one] |  |  |  | +
10 | O=C(Cc1ccc(C(F)(F)F)cc1)NCc1cnc2c(c1)CC(=O)N2 [GEN1-083, N-((2-oxo-2,3-dihydro-1H-pyrrolo[2,3-b]pyridin-5-yl)methyl)-2-(4-(trifluoromethyl)phenyl)acetamide] |  |  |  | −
11 | O=C(Cc1ccc(C(F)(F)F)cc1)NCC1Cc2cccc3[nH]c(=O)n(c23)C1 (centres unmarked) [GEN1-065] |  |  |  | −
12 | N#CNc1nc2ccccc2n1C1CCN(C(=O)Cc2ccc(C(F)(F)F)cc2)CC1 [GEN1-061] |  |  |  | +
13 | O=C(Cc1ccccc1)N1CCC(n2c(=O)[nH]c3ccccc32)CC1 [Example X4, 1-(1-(2-phenylacetyl)piperidin-4-yl)-1H-benzo[d]imidazole-2(3H)-one] | 21.2% | 5.3% | 87.8% | −
14 | O=C(Cc1ccc(C(F)(F)F)cc1)N1CCC(n2c(=O)[nH]c3ncccc32)CC1 [GEN1-041, 1-(1-(2-(4-(trifluoromethyl)phenyl)acetyl)piperidin-4-yl)-1H-imidazo[4,5-b]pyridine-2(3H)-one] |  |  |  | +
15 | CC(C)(C)c1ccc(CC(=O)N2CCC(n3c(=O)[nH]c4cccc(C(F)(F)F)c43)CC2)cc1 [GEN1-115, 1-(1-(2-(4-(tert-butyl)phenyl)acetyl)piperidin-4-yl)-7-(trifluoromethyl)-1^1H-benzo[d]imidazol-2(3H)-one] |  |  |  | +
16 | O=C(CCc1ccc(C(F)(F)F)cc1)N1CCC(n2c(=O)[nH]c3ccccc32)CC1 [GEN1-018, 1-(1-(3-(4-(trifluoromethyl)phenyl)propionyl)piperidin-4-yl)-1H-benzo[d]imidazole-2(3H)-one] | −36.5% | −6.2% | 98.6% | +
17 | O=C(Cc1ccc(C(F)(F)F)cc1)N1CCC(n2c(=O)oc3ccccc32)CC1 [Example P8, 3-(1-(2-(4-(trifluoromethyl)phenyl)acetyl)piperidin-4-yl)benzo[d]oxazole-2(3H)-one] |  |  |  | −
18 | COc1cccc2c1[nH]c(=O)n2C1CCN(C(=O)Cc2ccc(C(F)(F)F)cc2)CC1 [GEN1-003, 4-methoxy-1-(1-(2-(4-(trifluoromethyl)phenyl)acetyl)piperidin-4-yl)-1H-benzo[d]imidazole-2(3H)-one] | −10.8% | 22.2% | 94.1% | +
19 | O=C(Cc1ccc(C2CC2)cc1)N1CCC(n2c(=O)[nH]c3ccccc32)CC1 [GEN1-032, 1-(1-(2-(4-cyclopropylphenyl)acetyl)piperidin-4-yl)-1H-benzo[d]imidazole-2(3H)-one] | −16.3% | 13.8% | 94.9% | +
20 | O=C(Cc1ccc(C(F)(F)F)cc1)N[C@H]1CC[C@H](n2c(=O)[nH]c3ccccc32)CC1 [GEN1-022, Trans-N-(4-(2-oxo-2,3-dihydro-1H-benzo[d]imidazol-1-yl)cyclohexyl)-2-(4-(trifluoromethyl)phenyl)acetamide] | 15.8% | 29.5% | 81.2% | −
21 | CCC(=O)N1CCC(n2c(=O)oc3ccccc32)CC1 [Example P1, 3-(1-propionylpiperidin-4-yl)benzo[d]oxazole-2(3H)-one] |  |  |  | −
22 | CC(=O)N1CCN(C2CCN(C(=O)Cc3ccc(C(F)(F)F)cc3)CC2)c2ccccc21 [GEN1-243, 1-(4-(4-acetyl-3,4-dihydroquinoxaline-1(2H)-yl)piperidin-1-yl)-2-(4-(trifluoromethyl)phenyl)ethenone] |  |  |  | +
23 | NC(=O)c1cccc2[nH]c(=O)n(C3CCN(C(=O)Cc4ccc(C(F)(F)F)cc4)CC3)c12 [GEN1-095, 2-oxo-3-(1-(2-(4-(trifluoromethyl)phenyl)acetyl)piperidin-4-yl)-2,3-dihydro-1H-benzo[d]imidazol-4-carboxamide] |  |  |  | −
